For one data set, the target named is T1, BTK (Homo sapiens, UniProt Q06187).
T1 construct: endogenous in cells; host or cells: Mino cells
Kind of data set: BTK degradation activity test in Mino cells. The format is cell-based. Particulars: 16 h incubation, Western blot or Elisa. In outline: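 DC50 derived by curve fitting of BTK degradation rates versus untreated control across compound concentrations. Mino cells were exposed for 16 h; BTK levels in lysates, normalised via BCA protein, measured by Western blot or ELISA.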

A further data set concerns OCI-LY10 cells. Briefly: Inhibitory activity on OCI-LY10 cell proliferation (MTS). The format is cell-based. Particulars: Homo sapiens, 72 h. In outline:
(§1)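 Cells seeded at 10000/well, treated with compounds from 1000 nM (4-fold, 8 points) for 72 h (OCI-LY10) or 168 h (Mino) at 37° C. MTS added for 2 h, stopped with SDS, absorbance read at 490 and 650 nm; IC50 from dose-response fit.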

In the next data set the test system is Mino cells. Briefly: Inhibitory activity on Mino cell proliferation (MTS). The format is cell-based. Conditions: Homo sapiens, 168 h incubation. In outline:
as §1

Data set [1] is described as follows: Stability of compounds in human liver microsome. The format is in vitro ADME. Conditions: human liver microsomes, NADPH, 37° C., sampling 0-120 min; read-out: Human liver microsome T1/2. How it is done:
Compound to be tested: the compound to be tested (1 mg) was dissolved in DMSO (10 mL) to formulate to 0.1 mg/mL.
Internal standard compound: the internal standard compound (1 mg) was dissolved in DMSO (10 mL), 10 μL was taken and diluted to 10 mL to formulate to 100 ng/mL.
NADPH solution: NADPH (2.08 mg) was dissolved in PBS (50 μL) buffer to formulate to 50 mM.
Under the condition of ice bath, 1 mg of human liver microparticles was add to PBS (1 mL) buffer, then NADPH (20 μL) was added, and incubated at 37° C. for 5 min. 10 μL of the compound to be tested was added, and then samples were taken at 0, 15, 30, 60 and 120 min respectively. 10 μL of the solution was taken with a pipette each time and added to 490 μL of the solution containing the internal standard compound. The resulting solution was vortexed and then placed on ice, and then sampling at another time point continues. All samples were centrifuged at 10,000 rpm for 10 min, and the supernatant was taken for LC/MS testing. The metabolism of the compound in liver microsomes was calculated based on the peak area.

The term DC50 denotes the midpoint of the concentration-degradation curve. A lower DC50 goes with a more potent degrader. The term pIC50 denotes −log10 of the IC50, conventionally taken in molar units. A high value points to a low IC50.

pIC50: −log10 of the molar value.

T1 sequence (Q06187 whole entry): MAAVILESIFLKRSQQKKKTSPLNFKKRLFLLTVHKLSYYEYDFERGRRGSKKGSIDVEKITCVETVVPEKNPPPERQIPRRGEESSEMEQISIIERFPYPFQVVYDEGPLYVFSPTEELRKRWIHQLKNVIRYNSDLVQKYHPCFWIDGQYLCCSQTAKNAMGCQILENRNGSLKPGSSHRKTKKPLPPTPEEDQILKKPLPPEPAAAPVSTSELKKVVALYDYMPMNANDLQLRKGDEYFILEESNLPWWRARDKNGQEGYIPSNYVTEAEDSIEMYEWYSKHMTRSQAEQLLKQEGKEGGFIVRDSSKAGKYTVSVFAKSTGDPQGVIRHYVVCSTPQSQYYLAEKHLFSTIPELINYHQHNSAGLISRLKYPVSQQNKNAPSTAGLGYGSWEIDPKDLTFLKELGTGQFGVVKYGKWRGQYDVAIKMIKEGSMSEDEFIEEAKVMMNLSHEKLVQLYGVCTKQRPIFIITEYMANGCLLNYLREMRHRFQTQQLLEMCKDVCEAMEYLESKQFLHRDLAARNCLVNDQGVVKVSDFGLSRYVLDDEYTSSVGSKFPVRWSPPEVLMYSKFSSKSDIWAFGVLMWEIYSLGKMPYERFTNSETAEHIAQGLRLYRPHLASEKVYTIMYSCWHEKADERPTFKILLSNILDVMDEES

As for `NC(=O)c1nnc(N2CC3CC(N4C(=O)c5ccccc5C4=O)C2C3)nc1Nc1ccc(C2CCN(CC3CCN(c4ccc5c(c4)C(=O)N(C4CCC(=O)NC4=O)C5=O)C3)CC2)cc1` (stereo not shown) [Compound 144, 3-(6-(1,3-dioxoisoindolin-2-yl)-2-azabicyclo[2.2.1]heptan-2-yl)-5-((4-(1-((1-(2-(2,6-dioxopiperidin-3-yl)-1,3-dioxoisoindolin-5-yl)pyrrolidin-3-yl)methyl)piperidin-4-yl)phenyl)amino)-1,2,4-triazin-6-carboxamide], the DC50 on BTK is less than 1 nM. Further, the pIC50 with OCI-LY10 cells and with Mino cells was 8.46 throughout. Also, the half-life at 0.97 µg/mL in data set [1] was 146 min.
As for `CN1CCN([C@@H]2CCCN(c3nnc(C(N)=O)c(Nc4ccc(N5CCN(CC6CCN(c7ccc(N8CCC(=O)NC8=O)nc7)CC6)CC5)c(F)c4)n3)C2)C1=O` [Compound 195, (R)-5-((4-(4-((1-(6-(2,4-dioxotetrahydropyrimidin-1(2H)-yl)pyridin-3-yl)piperidin-4-yl)methyl)piperazin-1-yl)-3-fluorophenyl)amino)-3-(3-(3-methyl-2-oxoimidazolidin-1-yl)piperidin-1-yl)-1,2,4-triazin-6-carboxamide], the DC50 on BTK is less than 1 nM. Further, the negative logarithm of the IC50 (pIC50) in the data set with OCI-LY10 cells was 8.75; with Mino cells, 8.07. Moreover, the half-life at 0.97 µg/mL in data set [1] is greater than 30 min.
Take `CN1CCN([C@@H]2CCCN(c3nnc(C(N)=O)c(Nc4ccc(N5CCN(CC6CCN(c7ccc(F)c(N8CCC(=O)NC8=O)c7)C6)CC5)c(F)c4)n3)C2)C1=O` (stereo partly drawn) [Compound 256, 5-((4-(4-((1-(3-(2,4-dioxotetrahydropyrimidin-1(2H)-yl)-4-fluorophenyl)pyrrolidin-3-yl)methyl)piperazin-1-yl)-3-fluorophenyl)amino)-3-((R)-3-(3-methyl-2-oxoimidazolidin-1-yl)piperidin-1-yl)-1,2,4-triazin-6-carboxamide]: the 50% degradation concentration (DC50) on BTK is less than 1 nM. The pIC50 in the data set on OCI-LY10 cells is 8.80; in the data set with Mino cells, 8.73. In addition, the half-life at 0.97 µg/mL in data set [1] is greater than 30 min.
The compound `CN1CCN([C@@H]2CCCN(c3nnc(C(N)=O)c(Nc4ccc(C5CCN(CC6CCN(c7cc8c(cc7F)C(=O)N(C7CCC(=O)NC7=O)C8=O)C6)CC5)cc4)n3)C2)C1=O` (stereo partly drawn) [Compound 126, 5-((4-(1-((1-(2-(2,6-dioxopiperidin-3-yl)-6-fluoro-1,3-dioxoisoindolin-5-yl)pyrrolidin-3-yl)methyl)piperidin-4-yl)phenyl)amino)-3-((R)-3-(3-methyl-2-oxoimidazolin-1-yl)piperidin-1-yl)-1,2,4-triazin-6-carboxamide] came in with a 50% degradation concentration (DC50) at BTK of less than 1 nM. The pIC50 in the data set with OCI-LY10 cells was greater than 10.22; in the data set on Mino cells, 8.52. The half-life at 0.97 µg/mL in data set [1] amounted to 55.6 min.
As to `CN1CCN([C@@H]2CCCN(c3nnc(C(N)=O)c(Nc4ccc(N5CCN(CC6CCN(c7ccc(C(=O)N[C@H]8CCC(=O)NC8=O)nc7)CC6)CC5)c(F)c4)n3)C2)C1=O` [Compound 171, 5-((4-(4-((1-(6-(((S)-2,6-dioxopiperidin-3-yl)carbamoyl)pyridin-3-yl)piperidin-4-yl)methyl)piperazin-1-yl)-3-fluorophenyl)amino)-3-((R)-3-(3-methyl-2-oxoimidazolidin-1-yl)piperidin-1-yl)-1,2,4-triazin-6-carboxamide], at BTK, the DC50 was less than 1 nM. Besides, the negative-log IC50 (pIC50) is 8.58 in the data set on OCI-LY10 cells and 8.46 with Mino cells. Further, the half-life at 0.97 µg/mL in data set [1] is greater than 30 min.
Compound `CN1CCN([C@@H]2CCCN(c3nnc(C(N)=O)c(Nc4ccc(N5CCN(CC6CCN(c7ccc(C(=O)N[C@H]8CCC(=O)NC8=O)c(F)c7)CC6)CC5)c(F)c4)n3)C2)C1=O` [Compound 172, 5-((4-(4-((1-(4-(((S)-2,6-dioxopiperidin-3-yl)carbamoyl)-3-fluorophenyl)piperidin-4-yl)methyl)piperazin-1-yl)-3-fluorophenyl)amino)-3-((R)-3-(3-methyl-2-oxoimidazolidin-1-yl)piperidin-1-yl)-1,2,4-triazin-6-carboxamide] gave a DC50 on BTK of less than 1 nM. Further, the figures for the pIC50 in the data set with OCI-LY10 cells and in the data set on Mino cells were 8.62 and 8.21, respectively. Also, the half-life at 0.97 µg/mL in data set [1] is greater than 30 min.
Turning to `CN1C(=O)N([C@@H]2CCCN(c3nnc(C(N)=O)c(Nc4ccc(C5CCN(CC6CCN(c7ccc8c(c7)C(=O)N(C7CCC(=O)NC7=O)C8=O)C6)CC5)cc4)n3)C2)C(=O)C12CC2` (stereo partly drawn) [Compound 137, 5-((4-(1-((1-(2-(2,6-dioxopiperidin-3-yl)-1,3-dioxoisoindolin-5-yl)pyrrolidin-3-yl)methyl)piperidin-4-yl)phenyl)amino)-3-((R)-3-(4-methyl-5,7-dioxo-4,6-diazaspiro[2.4]heptan-6-yl)piperidin-1-yl)-1,2,4-triazin-6-carboxamide], at BTK, the 50% degradation concentration (DC50) was less than 1 nM. The figures for the pIC50 in the data set with OCI-LY10 cells and in the data set with Mino cells were 9.60 and 8.41, respectively. Moreover, the half-life at 0.97 µg/mL in data set [1] was 20 min.
In the case of `COc1ccc(N2CCC(CN3CCN(c4ccc(Nc5nc(N6CCC[C@@H](N7CCN(C)C7=O)C6)nnc5C(N)=O)cc4F)CC3)C2)cc1N1CCC(=O)NC1=O` (stereo partly drawn) [Compound 258, 5-((4-(4-((1-(3-(2,4-dioxotetrahydropyrimidin-1(2H)-yl)-4-methoxyphenyl)pyrrolidin-3-yl)methyl)piperazin-1-yl)-3-fluorophenyl)amino)-3-((R)-3-(3-methyl-2-oxoimidazolidin-1-yl)piperidin-1-yl)-1,2,4-triazin-6-carboxamide], the DC50 on BTK was less than 1 nM. For the same compound, the negative-log IC50 (pIC50) is 9.02 in the data set with OCI-LY10 cells and 8.27 with Mino cells. For the same compound, in data set [1], the half-life at 0.97 µg/mL is greater than 30 min.
The like results for `CN1CCN([C@@H]2CCCN(c3nnc(C(N)=O)c(Nc4ccc(N5CCN(CC6CCN(C(=O)c7ccc(F)c(N8CCC(=O)NC8=O)c7)C6)CC5)c(F)c4)n3)C2)C1=O` (stereo partly drawn) [Compound 148, 5-((4-(4-((1-(3-(2,4-dioxotetrahydropyrimidin-1(2H)-yl)-4-fluorobenzoyl)pyrrolidin-3-yl)methyl)piperazin-1-yl)-3-fluorophenyl)amino)-3-((R)-3-(3-methyl-2-oxoimidazolin-1-yl)piperidin-1-yl)-1,2,4-triazin-6-carboxamide] were, in that order, less than 1 nM, 8.49, 8.11 and greater than 30 min.
On BTK, `CN1CCN([C@@H]2CCCN(c3nnc(C(N)=O)c(Nc4ccc(N5CCN(CC6CCN(c7ccc8c(c7)C(=O)N(C7CCC(=O)NC7=O)C8=O)C6)CC5)c(Cl)c4)n3)C2)C1=O` (stereo partly drawn) [Compound 133, 5-((3-chloro-4-(4-((1-(2-(2,6-dioxopiperidin-3-yl)-1,3-dioxoisoindolin-5-yl)pyrrolidin-3-yl)methyl)piperazin-1-yl)phenyl)amino)-3-((R)-3-(3-methyl-2-oxoimidazolin-1-yl)piperidin-1-yl)-1,2,4-triazin-6-carboxamide] registered a half-maximal degradation concentration (DC50) of less than 1 nM. Also, the pIC50 with OCI-LY10 cells is 9.37; with Mino cells, 8.41. Besides, in data set [1], the half-life at 0.97 µg/mL was determined as 31.7 min.
Take `CN1CCN([C@@H]2CCCN(c3nnc(C(N)=O)c(Nc4ccc(C5CCN(CC6CCN(c7ccc8c(c7)C(=O)N(C7CCC(=O)NC7=O)C8=O)C6)CC5)c(F)c4)n3)C2)C1=O` (stereo partly drawn) [Compound 128, 5-((4-(1-((1-(2-(2,6-dioxopiperidin-3-yl)-1,3-dioxoisoindolin-5-yl)pyrrolidin-3-yl)methyl)piperidin-4-yl)-3-fluorophenyl)amino)-3-((R)-3-(3-methyl-2-oxoimidazolin-1-yl)piperidin-1-yl)-1,2,4-triazin-6-carboxamide]: the DC50 at BTK is less than 1 nM. The pIC50 is 9.43 in the data set on OCI-LY10 cells and 8.71 in the data set on Mino cells. Besides, the half-life at 0.97 µg/mL in data set [1] came out at 43.2 min.
The corresponding values for `NC(=O)c1nnc(N2CCC[C@@H](N3CCN(CC(F)(F)F)C3=O)C2)nc1Nc1ccc(C2CCN(CC3CCN(c4ccc5c(c4)C(=O)N(C4CCC(=O)NC4=O)C5=O)C3)CC2)cc1` (stereo partly drawn) [Compound 140, 5-((4-(1-((1-(2-(2,6-dioxopiperidin-3-yl)-1,3-dioxoisoindolin-5-yl)pyrrolidin-3-yl)methyl)piperidin-4-yl)phenyl)amino)-3-((R)-3-(2-oxo-3-(2,2,2-trifluoroethyl)imidazolin-1-yl)piperidin-1-yl)-1,2,4-triazin-6-carboxamide] are less than 1 nM, 9.33, 8.46 and 26.3 min.
For the compound `NC(=O)c1nnc(N2CCC[C@@H](N3C(=O)CCC3=O)C2)nc1Nc1ccc(C2CCN(CC3CCN(c4ccc5c(c4)C(=O)N(C4CCC(=O)NC4=O)C5=O)CC3)CC2)cc1` (stereo partly drawn) [Compound 135, 5-((4-(1-((1-(2-(2,6-dioxopiperidin-3-yl)-1,3-dioxoisoindolin-5-yl)piperidin-4-yl)methyl)piperidin-4-yl)phenyl)amino)-3-((R)-3-(2,5-dioxopyrrolidin-1-yl)piperidin-1-yl)-1,2,4-triazin-6-carboxamide], the DC50 at BTK was less than 1 nM. Also, the values for the pIC50 in the data set with OCI-LY10 cells and in the data set on Mino cells were 9.96 and 8.87, respectively. The half-life at 0.97 µg/mL in data set [1] amounted to 25 min.

The values above are taken from patent publication US20240360146A1, “BRUTON'S TYROSINE KINASE AND MUTANT DEGRADER, COMPOSITION AND APPLICATION THEREOF” (HANGZHOU HEALZEN THERAPEUTICS CO., LTD., priority 2021, published 2024).
